These results are taken from PubChem BioAssay AID720673 (NMMLSC, 2013).

Activity calls are given as the source filed them. How the calls were made is not given here. Bounds are passed on as bounds.

Broadly, the EC50 is the concentration at which the effect is half-maximal.

For the test, the target named is Botulinum neurotoxin type A light chain (Clostridium botulinum A ATCC 3502). The test can be described thus: inhibition of botulinum toxin A LC cleavage – biochemical, powder set 03, dose response (AID 720673). Conditions: BoNT/A LC protease, multiplex microsphere substrate cleavage assay.
As to `O=C(Nc1ccc2nc(-c3cccs3)c(-c3cccs3)nc2c1)C1CCCC1`, the EC50 was > 20 µM (inactive).

As to `Fc1cccc(-c2cn3nc(-c4ccccc4)c(-c4ccccc4)nc3n2)c1`, the EC50 is > 20 µM (inactive).

Consider `O=C(Nc1ccc2nc(-c3cccs3)c(-c3cccs3)nc2c1)NC1CCCC1`, for which the EC50 is > 20 µM (inactive).

Consider `O=C(Nc1ccc2nc(-c3ccccc3)c(-c3ccccc3)nc2c1)C1CCCC1`, for which the EC50 is > 20 µM (inactive).

With `Cc1ccc(-c2cn3nc(-c4ccc(F)cc4)c(-c4ccc(F)cc4)nc3n2)cc1`, the concentration giving a half-maximal response (EC50) is 7.7 µM.

In the case of `COc1cccc(-c2cn3nc(-c4ccc(F)cc4)c(-c4ccc(F)cc4)nc3n2)c1`, the EC50 was 11.1 µM.

Regarding `CCCOC(=O)Nc1ccc2nc(-c3ccccc3)c(-c3ccccc3)nc2c1`, the EC50 is > 20 µM (inactive).

As to `COc1ccc(-c2cn3nc(-c4ccc(OC)cc4)c(-c4ccc(OC)cc4)nc3n2)cc1`, the EC50 was 5.7 µM.

Turning to `CCCCOC(=O)Nc1ccc2nc(-c3cccs3)c(-c3cccs3)nc2c1`, the EC50 is > 20 µM (inactive).

As for `CC(C)(C)NC(=O)Nc1ccc2nc(-c3ccccc3)c(-c3ccccc3)nc2c1`, the EC50 is > 20 µM (inactive).

Regarding `CS(=O)(=O)c1ccc(-c2cn3nc(-c4ccc(F)cc4)c(-c4ccc(F)cc4)nc3n2)cc1`, the EC50 was > 20 µM (inactive).

On to `O=C(Nc1ccc2nc(-c3ccccc3)c(-c3ccccc3)nc2c1)NC1CCCC1`, for which the EC50 was > 20 µM (inactive).

With `CCS(=O)(=O)Nc1ccc2nc(-c3ccccc3)c(-c3ccccc3)nc2c1`, the EC50 is > 20 µM (inactive).

With `O=C(Nc1ccc2nc(-c3ccccc3)c(-c3ccccc3)nc2c1)OCc1ccccc1`, the EC50 is > 20 µM (inactive).

On to `CC(C)(C)C(=O)Nc1ccc2nc(-c3ccccc3)c(-c3ccccc3)nc2c1`, for which the EC50 was > 20 µM (inactive).

In the case of `CC(C)NC(=O)Nc1ccc2nc(-c3cccs3)c(-c3cccs3)nc2c1`, the EC50 is > 20 µM (inactive).

Consider `COc1ccc(-c2nc3nc(-c4cccc(F)c4)cn3nc2-c2ccc(OC)cc2)cc1`, for which the EC50 is 7 µM.

Turning to `Fc1ccc(-c2cn3nc(-c4ccccc4)c(-c4ccccc4)nc3n2)cc1`, the EC50 was > 20 µM (inactive).

Take `COc1ccc(-c2cn3nc(-c4ccccc4)c(-c4ccccc4)nc3n2)c(OC)c1`: the half-maximal effective concentration (EC50) was 13.2 µM.

As to `COc1ccc(-c2nc3nc(-c4cccc(OC)c4)cn3nc2-c2ccc(OC)cc2)cc1`, the EC50 is 14.7 µM.

`Fc1ccc(-c2nc3nc(-c4cccc(F)c4)cn3nc2-c2ccc(F)cc2)cc1`: the concentration for a half-maximal effect (EC50) was 8.6 µM.

On to `Fc1ccc(-c2cn3nc(-c4ccc(F)cc4)c(-c4ccc(F)cc4)nc3n2)cc1`, for which the concentration for a half-maximal effect (EC50) was 6.7 µM.

`FC(F)(F)Oc1ccc(-c2cn3nc(-c4ccccc4)c(-c4ccccc4)nc3n2)cc1`: the EC50 was > 20 µM (inactive).

On to `COc1ccc(-c2nc3nc(-c4ccc(OC(F)(F)F)cc4)cn3nc2-c2ccc(OC)cc2)cc1`, for which the EC50 was 4.2 µM.

On to `CCNC(=O)Nc1ccc2nc(-c3ccccc3)c(-c3ccccc3)nc2c1`, for which the EC50 is > 20 µM (inactive).

Consider `CC(C)CS(=O)(=O)Nc1ccc2nc(-c3cccs3)c(-c3cccs3)nc2c1`, for which the EC50 was > 20 µM (inactive).

`O=C(Nc1ccc2nc(-c3ccccc3)c(-c3ccccc3)nc2c1)C1CC1`: the EC50 is > 20 µM (inactive).

For the compound `COc1ccc(-c2nc3nc(-c4ccc(C)cc4)cn3nc2-c2ccc(OC)cc2)cc1`, the EC50 is > 20 µM (inactive).

For `CC(C)NC(=O)Nc1ccc2nc(-c3ccccc3)c(-c3ccccc3)nc2c1`, the EC50 was > 20 µM (inactive).

In the case of `CCCNC(=O)Nc1ccc2nc(-c3ccccc3)c(-c3ccccc3)nc2c1`, the EC50 is > 20 µM (inactive).

In the case of `Cc1ccc(-c2nc3nc(-c4ccc(OC(F)(F)F)cc4)cn3nc2-c2ccc(C)cc2)cc1`, the 50% effective concentration (EC50) was 4 µM.

As for `COc1ccc(-c2nc3nc(-c4ccc(F)cc4)cn3nc2-c2ccc(OC)cc2)cc1`, the EC50 was 4 µM.

As to `COC(=O)Nc1ccc2nc(-c3ccccc3)c(-c3ccccc3)nc2c1`, the EC50 is > 20 µM (inactive).

Take `Cc1ccc(-c2nc3nc(-c4ccc(C#N)cc4)cn3nc2-c2ccc(C)cc2)cc1`: the concentration for a half-maximal effect (EC50) was 4.7 µM.

`Clc1ccc(-c2cn3nc(-c4ccccc4)c(-c4ccccc4)nc3n2)c(Cl)c1`: the EC50 is > 20 µM (inactive).

Take `O=C(Nc1ccc2nc(-c3cccs3)c(-c3cccs3)nc2c1)C1CC1`: the EC50 was > 20 µM (inactive).

Regarding `Fc1ccc(-c2nc3nc(-c4ccccc4)cn3nc2-c2ccc(F)cc2)cc1`, the half-maximal effective concentration (EC50) was 11.1 µM.

With `Cc1ccc(-c2cn3nc(-c4ccc(C)cc4)c(-c4ccc(C)cc4)nc3n2)cc1`, the EC50 is 4.7 µM.

For `O=S(=O)(Nc1ccc2nc(-c3ccccc3)c(-c3ccccc3)nc2c1)C1CC1`, the EC50 is > 20 µM (inactive).

On to `COc1ccc(-c2nc3nc(-c4ccccc4OC)cn3nc2-c2ccc(OC)cc2)cc1`, for which the concentration giving a half-maximal response (EC50) was 8.9 µM.

Take `N#Cc1ccc(-c2cn3nc(-c4ccccc4)c(-c4ccccc4)nc3n2)cc1`: the EC50 is > 20 µM (inactive).

For the compound `CCOC(=O)Nc1ccc2nc(-c3cccs3)c(-c3cccs3)nc2c1`, the EC50 was > 20 µM (inactive).

`CCCS(=O)(=O)Nc1ccc2nc(-c3ccccc3)c(-c3ccccc3)nc2c1`: the EC50 was > 20 µM (inactive).

`COc1cccc(-c2cn3nc(-c4ccccc4)c(-c4ccccc4)nc3n2)c1`: the EC50 is 16.2 µM.

Take `COc1ccc(-c2nc3nc(-c4ccc(S(C)(=O)=O)cc4)cn3nc2-c2ccc(OC)cc2)cc1`: the EC50 is > 20 µM (inactive).

Take `CCCOC(=O)Nc1ccc2nc(-c3cccs3)c(-c3cccs3)nc2c1`: the EC50 is > 20 µM (inactive).

In the case of `CCCCOC(=O)Nc1ccc2nc(-c3ccccc3)c(-c3ccccc3)nc2c1`, the EC50 is > 20 µM (inactive).

As to `O=C(Nc1ccc2nc(-c3cccs3)c(-c3cccs3)nc2c1)OCc1ccccc1`, the EC50 is 10.6 µM.

Regarding `COc1ccccc1-c1cn2nc(-c3ccc(F)cc3)c(-c3ccc(F)cc3)nc2n1`, the EC50 is 6.2 µM.

For `Cc1ccc(-c2nc3nc(-c4ccc(F)cc4)cn3nc2-c2ccc(C)cc2)cc1`, the EC50 was 7.6 µM.

With `COc1cccc(-c2cn3nc(-c4ccc(C)cc4)c(-c4ccc(C)cc4)nc3n2)c1`, the 50% effective concentration (EC50) was 6.6 µM.

In the case of `CS(=O)(=O)c1ccc(-c2cn3nc(-c4ccccc4)c(-c4ccccc4)nc3n2)cc1`, the EC50 is 11.6 µM.

For `Cc1ccc(-c2nc3nc(-c4cccc(F)c4)cn3nc2-c2ccc(C)cc2)cc1`, the 50% effective concentration (EC50) is 5.2 µM.

Take `CCNC(=S)Nc1ccc2nc(-c3ccccc3)c(-c3ccccc3)nc2c1`: the EC50 was > 20 µM (inactive).

Consider `O=C(Nc1ccc2nc(-c3cccs3)c(-c3cccs3)nc2c1)C1CCC1`, for which the EC50 was > 20 µM (inactive).

Consider `CCCS(=O)(=O)Nc1ccc2nc(-c3cccs3)c(-c3cccs3)nc2c1`, for which the EC50 is > 20 µM (inactive).

`Cc1ccc(-c2nc3nc(-c4ccc(S(C)(=O)=O)cc4)cn3nc2-c2ccc(C)cc2)cc1`: the EC50 was 7.6 µM.

For the compound `COc1ccccc1-c1cn2nc(-c3ccc(C)cc3)c(-c3ccc(C)cc3)nc2n1`, the EC50 is 12.4 µM.

Regarding `COC(=O)Nc1ccc2nc(-c3cccs3)c(-c3cccs3)nc2c1`, the EC50 is > 20 µM (inactive).

For `COc1ccc(-c2cn3nc(-c4ccc(C)cc4)c(-c4ccc(C)cc4)nc3n2)c(OC)c1`, the EC50 was 9.5 µM.

Regarding `CC(C)OC(=O)Nc1ccc2nc(-c3ccccc3)c(-c3ccccc3)nc2c1`, the EC50 was > 20 µM (inactive).

For the compound `CCC(=O)Nc1ccc2nc(-c3ccccc3)c(-c3ccccc3)nc2c1`, the EC50 is > 20 µM (inactive).

For `CC(C)OC(=O)Nc1ccc2nc(-c3cccs3)c(-c3cccs3)nc2c1`, the EC50 is > 20 µM (inactive).

As to `Fc1ccc(-c2nc3nc(-c4ccc(OC(F)(F)F)cc4)cn3nc2-c2ccc(F)cc2)cc1`, the half-maximal effective concentration (EC50) is 15.3 µM.

For the compound `O=C(Nc1ccc2nc(-c3ccccc3)c(-c3ccccc3)nc2c1)C1CCC1`, the EC50 is > 20 µM (inactive).

On to `N#Cc1ccc(-c2cn3nc(-c4ccc(F)cc4)c(-c4ccc(F)cc4)nc3n2)cc1`, for which the EC50 is > 20 µM (inactive).

On to `O=C(Nc1ccc2nc(-c3ccccc3)c(-c3ccccc3)nc2c1)C1CCCCC1`, for which the EC50 was > 20 µM (inactive).

Turning to `CC(C)CS(=O)(=O)Nc1ccc2nc(-c3ccccc3)c(-c3ccccc3)nc2c1`, the EC50 was > 20 µM (inactive).

As for `COc1ccc(-c2nc3nc(-c4ccc(C#N)cc4)cn3nc2-c2ccc(OC)cc2)cc1`, the EC50 is 2.4 µM.

In the case of `COc1ccc(-c2cn3nc(-c4ccc(F)cc4)c(-c4ccc(F)cc4)nc3n2)cc1`, the EC50 is 7.1 µM.

Consider `CC(Oc1ccccc1)C(=O)Nc1ccc2nc(-c3ccccc3)c(-c3ccccc3)nc2c1` (configuration not stated), for which the EC50 was > 20 µM (inactive).

With `COc1ccc(-c2cn3nc(-c4ccc(C)cc4)c(-c4ccc(C)cc4)nc3n2)cc1`, the EC50 was 5 µM.

Take `COc1ccccc1-c1cn2nc(-c3ccccc3)c(-c3ccccc3)nc2n1`: the EC50 was 10.9 µM.

With `CCOC(=O)Nc1ccc2nc(-c3ccccc3)c(-c3ccccc3)nc2c1`, the EC50 is > 20 µM (inactive).

For the compound `CCNC(=O)Nc1ccc2nc(-c3cccs3)c(-c3cccs3)nc2c1`, the EC50 was 14.3 µM.

For the compound `CC(=O)Nc1ccc2nc(-c3ccccc3)c(-c3ccccc3)nc2c1`, the EC50 was > 20 µM (inactive).

For `COc1ccc(-c2nc3nc(-c4ccc(OC)cc4OC)cn3nc2-c2ccc(OC)cc2)cc1`, the EC50 was > 20 µM (inactive).

Regarding `COc1ccc(-c2nc3nc(-c4ccccc4)cn3nc2-c2ccc(OC)cc2)cc1`, the 50% effective concentration (EC50) is 9.2 µM.

Take `O=S(=O)(Nc1ccc2nc(-c3cccs3)c(-c3cccs3)nc2c1)C1CC1`: the EC50 is > 20 µM (inactive).

As for `Cc1ccc(-c2nc3nc(-c4ccccc4)cn3nc2-c2ccc(C)cc2)cc1`, the EC50 was 7.4 µM.

`CCC(=O)Nc1ccc2nc(-c3cccs3)c(-c3cccs3)nc2c1`: the EC50 was > 20 µM (inactive).

Take `COc1ccc(-c2cn3nc(-c4ccc(F)cc4)c(-c4ccc(F)cc4)nc3n2)c(OC)c1`: the 50% effective concentration (EC50) is 5.7 µM.
